According to ChEMBL document CHEMBL1201862, “PubChem BioAssay data set” (2004):
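Test compounds were applied to cells in 96-well plates for 48 hours at 5 doses. Here, GI50 denotes the concentration required for 50% inhibition of growth.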 Activity calls are given as the source filed them. No stated cut-off is given here; in the data, active = GI50 up to about 1.1 µM and inactive = higher.

Key:
Test in all cases: NCI-60 cell line screen, 48 h
[1] = system: A498
[2] = system: BT-549
[3] = system: CCRF-CEM
[4] = system: HCT-116
[5] = system: HCT-15
[6] = system: MCF7
[7] = system: MDA-MB-231
[8] = system: NCI-H23
[9] = system: NCI-H460
[10] = system: NCI-H522
[11] = system: OVCAR-8
[12] = system: RPMI-8226
[13] = system: SF-268
[14] = system: SF-295
[15] = system: SK-OV-3
[16] = system: SNB-75
[17] = system: SW-620
[18] = system: U-251
[19] = system: UO-31

Row | Compound | GI50 [1] | GI50 [2] | GI50 [3] | GI50 [4] | GI50 [5] | GI50 [6] | GI50 [7] | GI50 [8] | GI50 [9] | GI50 [10] | GI50 [11] | GI50 [12] | GI50 [13] | GI50 [14] | GI50 [15] | GI50 [16] | GI50 [17] | GI50 [18] | GI50 [19]
1 | c1ccc(C2=NN(c3nc4ccccc4s3)C3(CCCCC3)N2)nc1 | 32.2 µM (inactive) | 20.5 µM (inactive) | 29 µM (inactive) | 26.4 µM (inactive) | 32.8 µM | 21.6 µM (inactive) | 21.6 µM (inactive) | 24.9 µM (inactive) | 15.2 µM (inactive) | 26.5 µM (inactive) | 31.8 µM (inactive) | 16.1 µM (inactive) | 59.2 µM (inactive) | 27.8 µM (inactive) | > 100 µM (inactive) | 25.6 µM (inactive) | 30.7 µM (inactive) | 20.4 µM (inactive) | 35.1 µM (inactive)
2 | c1ccc([P+](c2ccccc2)(c2ccccc2)C2c3ccccc3-c3ccccc32)cc1 | 1.75 µM (inactive) | 2.94 µM (inactive) | 1.89 µM (inactive) | 0.473 µM (active) | 3.01 µM | 2.25 µM (inactive) | 2.52 µM (inactive) | 1.9 µM (inactive) | 1.83 µM (inactive) | 2.19 µM (inactive) | 2.81 µM (inactive) | 1.35 µM (inactive) | 2.77 µM (inactive) | 1.75 µM (inactive) | 1.33 µM (inactive) | 2.45 µM (inactive) | 3.08 µM (inactive) | 1.57 µM (inactive) | 2.67 µM (inactive)
3 | C(=C/c1nnnn1-c1ccccc1)/Nc1ccccc1 | > 100 µM (inactive) | 17.4 µM (inactive) | 25.5 µM (inactive) | 31.9 µM (inactive) | 21.5 µM | 19.3 µM (inactive) | 39 µM (inactive) | 23.7 µM (inactive) | 49.8 µM (inactive) | 20.8 µM (inactive) | 29.5 µM (inactive) | 31 µM (inactive) | 31.7 µM (inactive) | 26.2 µM (inactive) | 36.2 µM (inactive) | 27.5 µM (inactive) | 37.3 µM (inactive) | 27.9 µM (inactive) | 20.6 µM (inactive)
4 | C[C@@H](CC(O)C(O)C(C)(C)O)C1CCC23CC12CCC1[C@@]2(C)CCC(O)C(C)(C)C2CC(OC2OC(CO)C(O)C(O)C2O)[C@]13C (some centres not stated) | > 10 µM (inactive) | > 10 µM (inactive) | > 10 µM (inactive) | > 10 µM (inactive) | > 10 µM | > 10 µM (inactive) | > 10 µM (inactive) | > 10 µM (inactive) | > 10 µM (inactive) | > 10 µM (inactive) | > 10 µM (inactive) | > 10 µM (inactive) | > 10 µM (inactive) | > 10 µM (inactive) | > 10 µM (inactive) | > 10 µM (inactive) | > 10 µM (inactive) | > 10 µM (inactive) | > 10 µM (inactive)
5 | COC(=O)CN(CC(O)C(NC(C)=O)C(O)C=O)C(=O)OCc1ccccc1 (configuration not stated) | > 100 µM (inactive) | > 100 µM (inactive) | > 100 µM (inactive) | > 100 µM (inactive) | > 31.6 µM | > 100 µM (inactive) | > 100 µM (inactive) | > 100 µM (inactive) | > 100 µM (inactive) | > 100 µM (inactive) | > 100 µM (inactive) | > 100 µM (inactive) | > 100 µM (inactive) | > 100 µM (inactive) | > 100 µM (inactive) | > 100 µM (inactive) | > 100 µM (inactive) | > 100 µM (inactive) | > 100 µM (inactive)
6 | NN/C(=N\S(=O)(=O)c1cc(S(=O)(=O)c2ccccc2)cs1)Nc1ccc(Cl)cc1 | 33.8 µM (inactive) | 31.2 µM (inactive) | 13.5 µM (inactive) | 20.9 µM (inactive) | 34.3 µM | 32.4 µM (inactive) | 27.4 µM (inactive) | 23.8 µM (inactive) | 22.5 µM (inactive) | 13.2 µM (inactive) | 32.4 µM (inactive) | 22.7 µM (inactive) | 19.9 µM (inactive) | 17.6 µM (inactive) | 43.7 µM (inactive) | 21.9 µM (inactive) | 47.5 µM (inactive) | 23.5 µM (inactive) | 28.8 µM (inactive)
7 | O=[N+]([O-])c1cccc2nc3ccccc3c(NCCC[N+]3([O-])CCCCC3)c12 | 0.804 µM (active) | 0.501 µM (active) | 0.546 µM (active) | 0.261 µM (active) | 16 µM | 0.176 µM (active) | 0.351 µM (active) | 0.232 µM (active) | 0.279 µM (active) | 0.134 µM (active) | 1.85 µM (inactive) | 0.308 µM (active) | 0.323 µM (active) | 3.06 µM (inactive) | 1.02 µM (active) | 0.416 µM (active) | 0.468 µM (active) | 0.289 µM (active) | 12.9 µM (inactive)
8 | C[N+](C)(C)CC(=O)N/N=C(/CC(=O)CC(C1=C(O)c2ccccc2OC1)c1ccccc1)C(=O)Nc1cccc(Cl)c1 (configuration not stated) | > 100 µM (inactive) | > 100 µM (inactive) | > 100 µM (inactive) | > 100 µM (inactive) | > 100 µM | > 100 µM (inactive) | > 100 µM (inactive) | > 100 µM (inactive) | > 10 µM (inactive) | > 100 µM (inactive) | > 100 µM (inactive) | > 100 µM (inactive) | > 100 µM (inactive) | > 100 µM (inactive) | > 100 µM (inactive) | > 100 µM (inactive) | > 100 µM (inactive) | > 100 µM (inactive) | > 100 µM (inactive)
